Patent US20160281050A1, “METHODS FOR TREATING A CULTURE OF HAEMATOCOCCUS PLUVIALIS FOR CONTAMINATION USING SALT AND HYDROGEN PEROXIDE” (HELIAE DEVELOPMENT LLC, priority 2015, published 2016)
Read-outs that look alike come from different tables or passages of the source.

Columns and labels:
chytrids [1] = system: chytrids
Description: (§1) Culture samples of Haematococcus pluvialis (Strain 2) were collected on the second day of culture from open raceway bioreactor #2410 operating in conditions: reactor volume of 150,000 L; Daily PAR of 9.77 mol m^−2 d^−1; pH of 7.3; and paddlewheel speed of 70%. Culture samples were distributed into flasks for culturing, consisting of duplicate untreated controls and duplicate treatments. […] Samples were taken from the flask cultures daily to quantify % lysis and % chytrid infection and cell dry weight was quantified every other day for a duration of 11 days.

[2] = system: Haematococcus pluvialis (Strain 2); assay: % lysis and culture dry weight in flasks (Example 11)
Description: as §1

chytrids [3] = system: chytrids; remark: listed apart in the source
Description: Culture samples of Haematococcus pluvialis (Strain 2) were collected on the second day of the culture from open raceway bioreactor #2430 operating in conditions: reactor volume of 170,000 L; Daily PAR not measured; pH of 7.3; and paddlewheel speed of 70. The culture samples were distributed into flasks for culturing, consisting of duplicate untreated controls and duplicate treatments. […] Samples were taken from the flask cultures daily to quantify % lysis and % chytrid infection and cell dry weight was quantified every other day for a duration of 11 days.

[4] = 0.0105 mL/L 1 time daily for 3 days, day 1
[5] = 0.0105 mL/L 1 time daily for 3 days, day 2
[6] = 0.0105 mL/L 1 time daily for 3 days, day 3
[7] = 0.0105 mL/L 1 time daily for 3 days, day 4
[8] = 0.0105 mL/L 1 time daily for 3 days, day 5
[9] = 0.0105 mL/L 1 time daily for 3 days, day 6
[10] = 0.0105 mL/L 1 time daily for 3 days, day 7
[11] = 0.0105 mL/L 1 time every other day, day 1
[12] = 0.0105 mL/L 1 time every other day, day 2
[13] = 0.0105 mL/L 1 time every other day, day 3
[14] = 0.0105 mL/L 1 time every other day, day 4
[15] = 0.0105 mL/L 1 time every other day, day 5
[16] = 0.0105 mL/L 1 time every other day, day 6
[17] = 0.0105 mL/L 1 time every other day, day 7
[18] = 0.0105 mL/L 1 time per day, day 1
[19] = 0.0105 mL/L 1 time per day, day 2
[20] = 0.0105 mL/L 1 time per day, day 3
[21] = 0.0105 mL/L 1 time per day, day 4
[22] = 0.0105 mL/L 1 time per day, day 5
[23] = 0.0105 mL/L 1 time per day, day 6
[24] = 0.0105 mL/L 1 time per day, day 7

hydrogen peroxide [H2O2]
1.7 ± 2.4%: % Chytrid infection (chytrids [1]; [10]) | % Lysis [2, 10] | % Chytrid infection (chytrids [3]; 0.0105 mL/L 1 time per day for 3 d then every other day, day 10) | % Chytrid infection (chytrids [3]; [23]) | % Chytrid infection (chytrids [3]; 0.0140 mL/L 1 time per day for 3 d then every other day, day 6)
2.4 ± 0.0%: % Lysis [2, 24]
7.5 ± 1.2%: % Lysis [2, 6]
2.5 ± 1.2%: % Chytrid infection (chytrids [1]; [13]) | % Lysis [2, 19] | % Chytrid infection (chytrids [3]; 0.0105 mL/L 1 time per day for 3 d then every other day, day 6)
5.8 ± 3.5%: % Lysis [2, 20]
below 10%: cell lysis ([2]; flasks across treatments, 0.0105 mL/L)
3.3 ± 2.4%: % Lysis [2, 12] | % Lysis [2, 15] | % Lysis [2, 16]
0.0 ± 0.0%: % Chytrid infection (chytrids [1]; [4]) | % Chytrid infection (chytrids [1]; [5]) | % Chytrid infection (chytrids [1]; [6]) | % Chytrid infection (chytrids [1]; [7]) | % Chytrid infection (chytrids [1]; [9]) | % Chytrid infection (chytrids [1]; [11]) | % Chytrid infection (chytrids [1]; [12]) | % Chytrid infection (chytrids [1]; [14]) | % Chytrid infection (chytrids [1]; [18]) | % Chytrid infection (chytrids [1]; [19]) | % Chytrid infection (chytrids [1]; [20]) | % Chytrid infection (chytrids [1]; [21]) | % Chytrid infection (chytrids [1]; [23]) | % Chytrid infection (chytrids [1]; [24]) | % Lysis [2, 23] | % Chytrid infection (chytrids [3]; 0.0105 mL/L 1 time per day for 3 d then every other day, day 0) | % Chytrid infection (chytrids [3]; 0.0105 mL/L 1 time per day for 3 d then every other day, day 3) | % Chytrid infection (chytrids [3]; 0.0105 mL/L 1 time per day for 3 d then every other day, day 7) | % Chytrid infection (chytrids [3]; 0.0105 mL/L 1 time per day for 3 d then every other day, day 8) | % Chytrid infection (chytrids [3]; 0.0105 mL/L 1 time per day, day 0) | % Chytrid infection (chytrids [3]; [20]) | % Chytrid infection (chytrids [3]; 0.0105 mL/L 1 time per day, day 8) | % Chytrid infection (chytrids [3]; 0.0105 mL/L 1 time per day, day 10) | % Chytrid infection (chytrids [3]; 0.0140 mL/L 1 time per day for 3 d then every other day, day 0) | % Chytrid infection (chytrids [3]; 0.0140 mL/L 1 time per day for 3 d then every other day, day 3) | % Chytrid infection (chytrids [3]; 0.0140 mL/L 1 time per day for 3 d then every other day, day 4) | % Chytrid infection (chytrids [3]; 0.0140 mL/L 1 time per day for 3 d then every other day, day 5) | % Chytrid infection (chytrids [3]; 0.0140 mL/L 1 time per day for 3 d then every other day, day 7)
4.2 ± 1.2%: % Lysis [2, 9] | % Lysis [2, 13] | % Lysis [2, 21]
5.0 ± 2.4%: % Chytrid infection (chytrids [3]; 0.0105 mL/L 1 time per day for 3 d then every other day, day 5)
0.8 ± 1.2%: % Chytrid infection (chytrids [1]; [8]) | % Chytrid infection (chytrids [1]; [15]) | % Chytrid infection (chytrids [1]; [17]) | % Lysis [2, 7] | % Chytrid infection (chytrids [3]; 0.0105 mL/L 1 time per day for 3 d then every other day, day 4) | % Chytrid infection (chytrids [3]; [21]) | % Chytrid infection (chytrids [3]; [22]) | % Chytrid infection (chytrids [3]; 0.0105 mL/L 1 time per day, day 9)
below 5%: chytrid infection (chytrids [1]; all treated flasks, 0.0105 mL/L)
3.3 ± 0.0%: % Chytrid infection (chytrids [1]; [16]) | % Lysis [2, 5] | % Lysis [2, 14] | % Lysis [2, 17] | % Chytrid infection (chytrids [3]; [24])
5.0 ± 0.0%: % Lysis [2, 8]
2.5 ± 3.5%: % Chytrid infection (chytrids [1]; [22]) | % Chytrid infection (chytrids [3]; 0.0105 mL/L 1 time per day for 3 d then every other day, day 9)
4.2 ± 3.5%: % Lysis [2, 22]
5.0 ± 5.0%: % Lysis [2, 4] | % Lysis [2, 11] | % Lysis [2, 18]
